ChEMBL document CHEMBL1133530, “Classification of multidrug-resistance reversal agents using structure-based descriptors and linear discriminant analysis” (2000)

Species: Mus musculus
Test: Tested for the multidrug resistance reversal activity against P388 murine leukemia cell line, activity is expressed as RF(ED50 with no adriamycin (ADR)/ED50 with 200 nM ADR)
Format: functional

Compound `CCN(CC)CCOC1CCC2(C)C(=CCC3C4CCC(=O)C4(C)CCC32)C1` (stereo not drawn) has an RF of 60.
Compound `COc1ccc(CCC2NCCc3cc(OC)c(OC)cc32)cc1` (stereo not drawn) has an RF of 100.
`O=C(OCCN1CCN(CCOC(=O)C(c2ccccc2)c2ccccc2)CC1)C(c1ccccc1)c1ccccc1` was tested, and the RF was 300.
For `CCCCc1oc2ccccc2c1C(=O)c1cc(I)c(OCCN(CC)CC)c(I)c1` [AMIODARONE], the RF was 5.6.
With `COc1ccc(CCNCC(O)COc2cccc(C)c2)cc1OC` (stereo not drawn) [BEVANTOLOL] the RF was 50.
With `NCCc1ccccc1` [PHENETHYLAMINE] the RF was 1.
`COc1ccc(CCN(C)CCCC(C#N)(c2ccc(OC)c(OC)c2)C(C)C)cc1OC` (stereo not drawn) [VERAPAMIL] gave an RF of 100.
`OCCN1CCN(CC/C=C2/c3ccccc3Sc3ccc(Cl)cc32)CC1` [ZUCLOPENTHIXOL] gave an RF of 15.
